According to patent US9150553B2, “Carboxamide compounds and their use as calpain inhibitors” (AbbVie Deutschland GmbH & Co. KG, priority 2007, dated 2015):
Values joined by “and” are separate entries in the source; they are usually repeats but may differ in a detail not shown here. Identical values can stand only once.

Test: In vivo pharmacokinetic profile after oral dosing in rats (plasma, LC-MS)
Parameters: species or system Sprague-Dawley rats
Conditions: plasma prodrug I-2 after oral 10 mg/kg of prodrug example 2, male rats, lines = rat 1, 2, 3 and mean
Description: The compound described in example 2 was prepared as a solution (20% EtOH, 40% PEG400, qc. Ampuwa) at a concentration appropriate for a 10 mg/kg (5 mL/kg) oral dose.
Three male Sprague-Dawley rats (200-300 g; Elevage Janvier, France) were used in this study. Due to size, each rat was housed in Macrolon Type 111 cages under conventional barrier conditions. The animals were fasted overnight prior to dosing and throughout the duration of the study but were permitted water ad libitum and were permitted food typically six hours postdosing. Control animals were placed under deep isoflurane anesthia and euthanized by bleeding (cardiac puncture) and their tissues removed and used as blank standards during sample analysis.
The group contained three rats. The group of rats received a 10 mg/kg (5 mL/kg) dose orally by gavage. At the conclusion of the study, rats were euthanized by bleeding (cardiac puncture) under deep isoflurane anesthesia.
Potassium-EDTA blood samples (approx. 200-300 μl) were withdrawn from the tail vein of each animal by butterfly catheter 0.25, 0.5, 1, 1.5, 2, 3, 4, 6, 8 and 24 hours after drug administration. Upon collection, the samples were promptly placed in an ice bath, and within 2 hours after sample collection they were centrifuged at about 4° C. Upon completion of the study, animals were put under deep anesthesia using isoflurane and euthanized by bleeding (cardiac puncture). The resulting plasma samples were placed in clean PP-tubes and stored in a freezer until analysis.
The plasma samples were assayed for the compound I and corresponding drug II using appropriate liquid chromatography mass spectrometry procedures.
Peak plasma concentrations (Cmax) and the time to peak plasma concentration (Tmax) were read directly from the plasma concentration data for each rat. The drug and the prodrug plasma concentration data were submitted to multi-exponential curve fitting using WinNonlin. The area under the plasma concentration-time curve from 0 to t hours (time of the last measurable plasma concentration) after dosing (AUC0-t) was calculated using the linear trapezoidal rule for the plasma concentration-time profiles. The residual area extrapolated to infinity, determined as the final measured plasma concentration (Ct) divided by the terminal elimination rate constant (B), was added to AUC0-t to produce the total area under the curve (AUC0-∞). The apparent total plasma clearance (CLp) was calculated by dividing the administered dose by the AUC0-∞. The initial volume of distribution (Vc) was calculated as the dose divided by the extrapolated concentration at time=0 (C0). […] The bioavailability was calculated as the dose-normalized AUC0∞, from the oral dose divided by the corresponding value derived from an intravenous dose.

[1] = male, Sprague-Dawley, rat, plasma, po, 10 mg/kg

NC(=O)C1(C(Cc2ccccc2)NC(=O)c2cccnc2-n2ccc(-c3cccc(C(F)(F)F)c3)n2)OCCO1 (stereo not shown) [Compound I-2, N-{1-[2-(Aminocarbonyl)-1,3-dioxolan-2-yl]-2-phenylethyl}-2-{3-[3-(trifluoromethyl)phenyl]-1H-pyrazol-1-yl}nicotinamide]
AUC [1]: 1700 ng·h/mL | Tmax [1]: 18 min | prodrug AUC: 1315 ng·h/mL and 1485 ng·h/mL and 2297 ng·h/mL | prodrug Tmax: 30 min
